Here are results for 1 molecule from patent US9908877B2, “Imidazo[1,5-a]pyridinium ion fluorophores, and methods of making and using the same” (Indiana University Research and Technology Corporation, priority 2013, dated 2018).

Structures are written as SMILES. Several values for one entry are separate records, joined by “and”; a condition that tells them apart may be missing. Equal values may be shown once.

Common to all, as to assay type: physicochemical
A short description of data set [1]: Fluorescence emission spectrum (maximum emission wavelength). The method, then:
Method for Obtaining a Fluorescence Emission Spectrum
Fluorescence emission spectra are obtained and recorded on a QM-4-CW Spectrofluorometer using FeliX32 software (Photon Technology International, Inc., Birmingham, N.J.).
(§1) The compounds were analyzed at 298° K according to the Method for Obtaining Ultraviolet-Visible Light Spectrum (30 μM acetonitrile) to obtain the maximum absorbance wavelength (λabs,max), Method for Obtaining Fluorescence Emission Spectrum (30 μM acetonitrile) to obtain the maximum emission wavelength (λem,max) and Method for Determining Quantum Yield (ΦF) (30 μM acetonitrile) at the concentration, in the solvent, and with the counter ion indicated in Table 1. The compounds included hydrogen at each R group that is not otherwise specified.
(§2) Compounds 6, 7, 9, 11-14 and 21 were analyzed according to: the Method for Obtaining Ultraviolet-Visible Light Spectrum to obtain the maximum absorbance wavelength (λabs,max), the Method for Obtaining Fluorescence Emission Spectrum to obtain the maximum emission wavelength (λem,max), and the Method for Determining Quantum Yield (ΦF) in the solvent and with the counter ion indicated in Table 3.

Data set [2] can be described thus: Ultraviolet-visible light spectrum (maximum absorbance wavelength). Here is the method:
Method for Obtaining an Ultraviolet-Visible Light Spectrum
Ultraviolet-visible (UV-Vis) Light spectra are obtained and recorded on an Agilent 8453 spectrophotometer using ChemStation software (Agilent Technologies, Inc., Santa Clara, Calif.).
as §1, §2

Data set [3] can be described thus: pKa from fluorescence intensity versus pH. The following applies: non-linear regression of fluorescence intensity versus pH, buffered water pH 2.5 to 7.5. Here is the method:
Method for Determining pKa
A pKa value is determined by plotting fluorescence intensity (Imax) at emission maxima against pH and fitting the result to the non-linear expression in equation (1) (i.e., eq.(1)). In eq (1), a and b are the molar coefficient of the acid (HA) and base (A^−) form, respectively, and c is the combined overall concentration of the acid and base form. i.e., c=[HA]+[A^−].

A short description of data set [4]: Fluorescence response to trifluoroacetic acid / DBU in acetonitrile. The method, then: A 30 μM solution of Compound 6 in acetonitrile was prepared by adding 99 μL of a stock solution of 3.04 mM Compound 6 in methanol to 10 mL of acetonitrile. An initial fluorescence emission spectrum of the solution was obtained and is illustrated by curve (i) in FIG. 1A.
A series of approximately 13.8 μL aliquots of trifluoroacetic acid (TFA) were then added to the 30 μM solution of Compound 6 until a total concentration of 60.0 mM of TFA was present in the solution. (The total amount of TFA present in the solution corresponded to 2000 equivalents of acid per equivalent of Compound 6.) The fluorescence emission spectrum of the resulting solution was obtained and is illustrated by curve (ii) in FIG. 1A.
A base, i.e., 1,8-diazabicyclo[5.4.0]undec-7-ene (DBU), was then added to the solution to neutralize the acid until a concentration of 90 mM DBU was obtained. The fluorescence emission spectrum of the resulting solution was obtained and is illustrated by curve (iii) in FIG. 1A. The fluorescence emission intensity at λem,max=565 nm increased as the amount of base present in the system increased and the fluorescence emission intensity at λem,max=405 nm decreased as the amount of base present in the system increased, which reflected Compound 6's ratiometric response to the changing base concentration in acetonitrile.
A 30 μM solution of Compound 7 in acetonitrile was prepared by adding 84 μL of a stock solution of 3.58 mM Compound 7 in methanol to 10 mL of acetonitrile. The emission spectrum of the solution was then obtained and is illustrated by curve (i) in FIG. 1B.
A series of approximately 13.8 μL aliquots of TFA were then added to the 30 μM solution of Compound 7 until a total concentration of 60.0 mM TFA was present in the solution (which corresponded to 2000 equivalents of acid per equivalent of Compound 7). The fluorescence emission spectrum of the solution was obtained and is illustrated by curve (ii) in FIG. 1B.
After the 60 mM TFA concentration was achieved, DBU was gradually added to the solution until a total concentration of 90 mM DBU was present in the solution. The fluorescence spectrum of the solution was obtained and is illustrated by curve (iii) in FIG. 1B.
An aliquot of 50 μL of trifluoroacetic acid was then added to the system, and the fluorescence emission spectrum was obtained and is illustrated by the curved line with a peak at 360 nm in FIG. 6A.
Compound 10 was placed in neat acetonitrile and its emission spectrum was monitored as trifluoroacetic acid was added to the acetonitrile in incremental amounts to achieve a solution that included an acid concentration ranging from 0 to 0.2 M. After each acid addition the sample was excited with radiation of a wavelength 340 nm, and its fluorescence emission spectrum was monitored. The results are illustrated in FIG. 7A.
The solution of Compound 10 in acetonitrile was titrated with trifluoroacetic acid (TFA). […] The first stage, which occurred with the addition of the initial aliquots of TFA, was a slight increase intensity at 580 nm, as illustrated in FIG. 7A. As more TFA was added to the system, a second transition occurred in which the emission at 580 nm began to decrease and as the emission at 400 nm began to increase, as illustrated in FIG. 7B. A plot of the emission intensity at 580 nm versus pH and at 400 nm versus pH is illustrated in FIG. 7C.
Compounds 10, 11, and 12 were then each individually added, at a concentration of 30 μM, to acetonitrile and the emission spectrum of each was monitored. The compounds emitted at 600 nm with an intensity of about 7.57×10^5 arbitrary units (a.u.) in neat acetonitrile. […] FIG. 8B illustrates the emission properties of Compound 12.

Turning to `CCN(CC)c1ccc(-c2c3cccc[n+]3cn2-c2ccc(OC)cc2)cc1.[Cl-]` [Compound 6, 1-(4-(diethylamino)phenyl)-2-(4-methoxyphenyl)-2H-imidazo[1,5-a]pyridin-4-ium chloride], the “λem, max Em” value in data set [1] (H2O (pH not given), 30 μM) came out at 580 nm; in data set [1] (H2O pH = 2.5, 30 μM), 400 nm; in data set [1] (MeCN + 13.8 uL TFA, 30 μM) it was 405 nm; in data set [1] (MeCN, 30 μM), 565 nm. Moreover, the “λabs, max Abs” value in data set [2] (H2O (pH not given), 30 μM) was found to be 350 nm; in data set [2] (H2O pH = 2.5, 30 μM), 350 nm; in data set [2] (MeCN + 13.8 uL TFA, 30 μM), 350 nm; in data set [2] (MeCN, 30 μM), 350 nm. The molecule further came in with a pKa in data set [3] of 5. In addition, the “λem,max (fluorescence emission)” value is 565 nm in data set [4] (30 μM in acetonitrile in the absence of trifluoroacetic acid); 400 nm and 405 nm in data set [4] (30 μM in acetonitrile in the presence of trifluoroacetic acid (60.0 mM TFA)).
